Results as given in ChEMBL document CHEMBL3046257, “Response of sweet maize (Zea mays L.) hybrids to halosulfuron” (Crop Prot, 2008).

Experiments:
Type in all cases: organism-based
Zea mays [1] = assay: Toxicity in Zea mays GH2298 (maize) assessed as plant height at 25 g ai/ha applied shortly post-emergence at three to five-leaf stage using backpack sprayer measured after 21 days (Rvb =80 cm); conditions: in vivo, other, 504 h
Zea mays [2] = assay: Toxicity in Zea mays GH2041 (maize) assessed as marketable yield at 25 g ai/ha applied shortly post-emergence at three to five-leaf stage using backpack sprayer (reference value: 12.2 T/ha ); conditions: in vivo, other
Zea mays [3] = assay: Toxicity in Zea mays GH2041 (maize) assessed as visible injury at 50 g ai/ha applied shortly post-emergence at three to five-leaf stage using backpack sprayer measured after 7 days; conditions: in vivo, other, 168 h
Zea mays [4] = assay: Toxicity in Zea mays GH2684 (maize) assessed as visible injury at 50 g ai/ha applied shortly post-emergence at three to five-leaf stage using backpack sprayer measured after 14 days; conditions: in vivo, other, 336 h
Zea mays [5] = assay: Toxicity in Zea mays GG446 (maize) assessed as visible injury at 50 g ai/ha applied shortly post-emergence at three to five-leaf stage using backpack sprayer measured after 28 days; conditions: in vivo, other, 672 h
Zea mays [6] = assay: Toxicity in Zea mays GH2298 (maize) assessed as visible injury at 25 g ai/ha applied shortly post-emergence at three to five-leaf stage using backpack sprayer measured after 14 days; conditions: in vivo, other, 336 h
Zea mays [7] = assay: Toxicity in Zea mays GG214 (maize) assessed as visible injury at 50 g ai/ha applied shortly post-emergence at three to five-leaf stage using backpack sprayer measured after 28 days; conditions: in vivo, other, 672 h
Zea mays [8] = assay: Toxicity in Zea mays Empire (maize) assessed as reduction in marketable yield at 50 g ai/ha applied shortly post-emergence at three to five-leaf stage using backpack sprayer; design: scale not given: the % may be the effect or the level left; conditions: in vivo, other
Zea mays [9] = assay: Toxicity in Zea mays GG214 (maize) assessed as visible injury at 25 g ai/ha applied shortly post-emergence at three to five-leaf stage using backpack sprayer measured after 14 days; conditions: in vivo, other, 336 h
Zea mays [10] = assay: Toxicity in Zea mays GG214 (maize) assessed as marketable yield at 25 g ai/ha applied shortly post-emergence at three to five-leaf stage using backpack sprayer (reference value: 14.2 T/ha ); conditions: in vivo, other
Zea mays [11] = assay: Toxicity in Zea mays GH2041 (maize) assessed as plant height at 50 g ai/ha applied shortly post-emergence at three to five-leaf stage using backpack sprayer measured after 21 days (Rvb =80 cm); conditions: in vivo, other, 504 h
Zea mays [12] = assay: Toxicity in Zea mays GG446 (maize) assessed as cob size at 50 g ai/ha applied shortly post-emergence at three to five-leaf stage using backpack sprayer (reference value: 379 g); conditions: in vivo, other
Zea mays [13] = assay: Toxicity in Zea mays GH2684 (maize) assessed as visible injury at 50 g ai/ha applied shortly post-emergence at three to five-leaf stage using backpack sprayer measured after 7 days; conditions: in vivo, other, 168 h
Zea mays [14] = assay: Toxicity in Zea mays GH2547 (maize) assessed as cob size at 25 g ai/ha applied shortly post-emergence at three to five-leaf stage using backpack sprayer (reference value: 315 g); conditions: in vivo, other
Zea mays [15] = assay: Toxicity in Zea mays GG446 (maize) assessed as marketable yield at 25 g ai/ha applied shortly post-emergence at three to five-leaf stage using backpack sprayer (reference value: 20.0 T/ha ); conditions: in vivo, other
Zea mays [16] = assay: Toxicity in Zea mays GSS9299 (maize) assessed as visible injury at 25 g ai/ha applied shortly post-emergence at three to five-leaf stage using backpack sprayer measured after 7 days; conditions: in vivo, other, 168 h
Zea mays [17] = assay: Toxicity in Zea mays GH2041 (maize) assessed as cob size at 25 g ai/ha applied shortly post-emergence at three to five-leaf stage using backpack sprayer (reference value: 285 g); conditions: in vivo, other
Zea mays [18] = assay: Toxicity in Zea mays GH2041 (maize) assessed as marketable yield at 50 g ai/ha applied shortly post-emergence at three to five-leaf stage using backpack sprayer (reference value: 12.2 T/ha ); conditions: in vivo, other
Zea mays [19] = assay: Toxicity in Zea mays GH2684 (maize) assessed as visible injury at 25 g ai/ha applied shortly post-emergence at three to five-leaf stage using backpack sprayer measured after 7 days; conditions: in vivo, other, 168 h
Zea mays [20] = assay: Toxicity in Zea mays Empire (maize) assessed as plant height at 50 g ai/ha applied shortly post-emergence at three to five-leaf stage using backpack sprayer measured after 21 days (Rvb =73 cm); conditions: in vivo, other, 504 h
Zea mays [21] = assay: Toxicity in Zea mays GG446 (maize) assessed as cob size at 25 g ai/ha applied shortly post-emergence at three to five-leaf stage using backpack sprayer (reference value: 379 g); conditions: in vivo, other
Zea mays [22] = assay: Toxicity in Zea mays GH2298 (maize) assessed as visible injury at 50 g ai/ha applied shortly post-emergence at three to five-leaf stage using backpack sprayer measured after 7 days; conditions: in vivo, other, 168 h
Zea mays [23] = assay: Toxicity in Zea mays GH2547 (maize) assessed as plant height at 50 g ai/ha applied shortly post-emergence at three to five-leaf stage using backpack sprayer measured after 21 days (Rvb =80 cm); conditions: in vivo, other, 504 h
Zea mays [24] = assay: Toxicity in Zea mays GH2684 (maize) assessed as cob size at 50 g ai/ha applied shortly post-emergence at three to five-leaf stage using backpack sprayer (reference value: 340 g); conditions: in vivo, other
Zea mays [25] = assay: Toxicity in Zea mays GH2041 (maize) assessed as visible injury at 50 g ai/ha applied shortly post-emergence at three to five-leaf stage using backpack sprayer measured after 14 days; conditions: in vivo, other, 336 h
Zea mays [26] = assay: Toxicity in Zea mays GH2684 (maize)assessed as visible injury at 25 g ai/ha applied shortly post-emergence at three to five-leaf stage using backpack sprayer measured after 14 days; conditions: in vivo, other, 336 h
Zea mays [27] = assay: Toxicity in Zea mays GH2684 (maize) assessed as marketable yield at 50 g ai/ha applied shortly post-emergence at three to five-leaf stage using backpack sprayer (reference value: 15.5 T/ha ); conditions: in vivo, other
Zea mays [28] = assay: Toxicity in Zea mays Empire (maize) assessed as cob size at 25 g ai/ha applied shortly post-emergence at three to five-leaf stage using backpack sprayer (reference value: 304 g); conditions: in vivo, other
Zea mays [29] = assay: Toxicity in Zea mays GH2041 (maize) assessed as visible injury at 25 g ai/ha applied shortly post-emergence at three to five-leaf stage using backpack sprayer measured after 7 days; conditions: in vivo, other, 168 h
Zea mays [30] = assay: Toxicity in Zea mays GSS9299 (maize) assessed as visible injury at 25 g ai/ha applied shortly post-emergence at three to five-leaf stage using backpack sprayer measured after 28 days; conditions: in vivo, other, 672 h
Zea mays [31] = assay: Toxicity in Zea mays GH2547 (maize) assessed as visible injury at 50 g ai/ha applied shortly post-emergence at three to five-leaf stage using backpack sprayer measured after 7 days; conditions: in vivo, other, 168 h
Zea mays [32] = assay: Toxicity in Zea mays GH2547 (maize) assessed as marketable yield at 25 g ai/ha applied shortly post-emergence at three to five-leaf stage using backpack sprayer (reference value: 16.7 T/ha ); conditions: in vivo, other
Zea mays [33] = assay: Toxicity in Zea mays GSS9299 (maize) assessed as marketable yield at 25 g ai/ha applied shortly post-emergence at three to five-leaf stage using backpack sprayer (reference value: 13.2 T/ha ); conditions: in vivo, other

COc1cc(OC)nc(NC(=O)NS(=O)(=O)c2c(C(=O)O)c(Cl)nn2C)n1 [HALOSULFURON] gave an Activity (Zea mays [1]) of 76 cm, a Crop_yield (Zea mays [2]) of 11.8 tons/ha and an Activity (Zea mays [3]) of 2%. For the same compound, the Activity (Zea mays [4]) was 5%, the Activity (Zea mays [5]) was 0% and the Activity (Zea mays [6]) was 2%. For the same compound, the Activity (Zea mays [7]) was 1%, the Activity (Zea mays [8]) was 21% and the Activity (Zea mays [9]) was 0%. For the same compound, the Crop_yield (Zea mays [10]) was 13.4 tons/ha, the Activity (Zea mays [11]) was 77 cm and the Activity (Zea mays [12]) was 387 g. It also gave an Activity (Zea mays [13]) of 7%, an Activity (Zea mays [14]) of 310 g and a Crop_yield (Zea mays [15]) of 19.3 tons/ha. For the same compound, the Activity (Zea mays [16]) was 1%, the Activity (Zea mays [17]) was 273 g and the Crop_yield (Zea mays [18]) was 11.3 tons/ha. The Activity (Zea mays [19]) was 4%, the Activity (Zea mays [20]) was 69 cm and the Activity (Zea mays [21]) was 370 g. The Activity (Zea mays [22]) was 6%, the Activity (Zea mays [23]) was 79 cm and the Activity (Zea mays [24]) was 321 g. It also gave an Activity (Zea mays [25]) of 2%, an Activity (Zea mays [26]) of 3% and a Crop_yield (Zea mays [27]) of 15.2 tons/ha. It also gave an Activity (Zea mays [28]) of 299 g, an Activity (Zea mays [29]) of 1% and an Activity (Zea mays [30]) of 0%. For the same compound, the Activity (Zea mays [31]) was 2%, the Crop_yield (Zea mays [32]) was 16.2 tons/ha and the Crop_yield (Zea mays [33]) was 12.3 tons/ha.
